Test results published in paper PMC6370856, “Peptidyl prolyl cis/trans isomerase activity on the cell surface correlates with extracellular matrix development” (Communications Biology, 2019).

Key:
Jurkat cells = assay: PPIase activity on cell surface (PACS), Jurkat cells; type: cell-based; settings: 1 µL medium with 200 µM inhibitor added to 19 µL
Description: (§1) To investigate PACS, we need to distinguish between different families of PPIase. […] PACS must also be distinguished from that in culture medium. Adhesive cells such as fibroblasts (human dermal fibroblasts isolated from neonatal foreskin (HDFn)) or mesenchymal stromal cells (MSCs) were washed by simple pipetting and pooling. Washing of suspension cells such as T cells was performed by centrifugation. […] To minimize the potential damage to cells, one washing step was used in the PACS measurement for suspension cells (Supplementary Fig. 10).
(§2) The assay was performed in a cold room. If there was no additional description, the assays were performed in CO2-independent medium supplemented with 10% (v/v) h.i. FBS (medium-h.i. FBS) and 2mM L-glutamine. […] FBS to a final concentration of 120 µg mL^−1 (two times substrate stock). α-Chymotrypsin was prepared freshly. Fifteen micrograms of α-chymotrypsin was dissolved in 2 mL medium-h.i. FBS, and the pH was adjusted with 10 µL 1 M NaOH.
One or more flasks of cells (5 mL per flask, depending on the maximum culture density of each cell line) were harvested by centrifuging at 1000 rpm for 3 min. To remove PPIases from the supernatant originating from the culture, cells were washed one time with 2 mL CO2-independent medium and were resuspended in 1.6 mL of CO2-independent medium with substrate. The cells were centrifuged again, and then 800 µL of the supernatant was taken. The residual volume containing cells was suspended. Nineteen microliters of the cells or supernatant was pipetted to a non-binding 96-well microplate to measure PPIase activity. Four different conditions were performed. […] The plate was kept for 5 min without agitation. The activity measurements were triggered by adding 20 µL of α-chymotrypsin at time 0 min, followed by 1.5 min agitation, and the reaction was stopped after 2 min with 80 µL 20% acetic acid, followed by 15 rounds of up and down pipetting mixing. […]
For the Jurkat cell number activity measurements, two flasks of cells (10 mL) were harvested, washed, and suspended in 600 µL of CO2-independent medium with substrate. The cells were centrifuged again, and then 300 µL supernatant was taken to measure the activity. The residual volume with cells was suspended and used to measure activity (cell density: 2.4 × 10^7 cells/mL). Four different conditions were performed: 20 µL supernatant or cell with 0 µL substrate, 10 µL supernatant or cell with 10 µL substrate, 5 µL supernatant or cell with 15 µL substrate, and 2.5 µL supernatant or cell with 17.5 µL substrate. […]

[1] = test system: human mesenchymal stromal cells (MSCs); assay: PPIase activity on cell surface (PACS), MSCs; type: cell-based; settings: MSC, inhibitor final concentration of 10 µM
Description: as §1, §2
(§3) The cells (10,000 per well) were cultured in 96-well plates for 24 h. The supernatant was removed by turning the plate upside down. The cells were washed three times for 5 min under gentle shaking using supplemented CO2-independent medium (100 µL/well), and the supernatant was removed as before. The cells were kept in supplemented CO2-independent medium (100 µL/well) for measuring PPIase activity.
(§4) The medium was removed with a pipette. […] The mixture was kept for 5 min without agitation, followed by 1.5 min of agitation (linear shaking by hand with a speed of around 200 rounds/min). Twenty microliters were taken from the supernatant and measured along with the cell fraction (the remaining 20 µL) for PPIase activity. The activity measurements were triggered by adding 20 µL α-chymotrypsin at time 0 min, followed by 1.5 min of agitation, and the reaction was stopped at time 2 min with 80 µL of 20% acetic acid followed by 15 rounds of up and down pipetting mixing. Four independent experiments were performed on the same day.

[2] = test system: PPIase activity in culture medium (FKBP in the FBS-containing medium); assay: PPIase activity in CO2-independent medium with or without FBS (control); type: biochemical, bovine; settings: for Supernatant PPIase activity k, Exp. 1 / Supernatant PPIase activity k, Exp. 2 / Supernatant PPIase activity k, Exp. 3 / Supernatant PPIase activity k, Mean: no cells
Description: as §1, §2

[3] = test system: human dermal fibroblasts isolated from neonatal foreskin (HDFn); assay: PPIase activity on cell surface (PACS), HDFn; type: cell-based; settings: inhibitor final concentration of 10 µM
Description: To investigate PACS, we need to distinguish between different families of PPIase. […] PACS must also be distinguished from that in culture medium. Adhesive cells such as fibroblasts (human dermal fibroblasts isolated from neonatal foreskin (HDFn)) or mesenchymal stromal cells (MSCs) were washed by simple pipetting and pooling. Washing of suspension cells such as T cells was performed by centrifugation. After the first washing step, no change in PPIase activity in supernatant could be detected through the following washing steps. To minimize the potential damage to cells, one washing step was used in the PACS measurement for suspension cells (Supplementary Fig. 10). […] Adding SLF further reduced the isomerase activity in samples both with and without cells due to the FKBP in the fetal bovine serum (FBS)-containing medium. After the treatment of CsA/SLF, these was no difference in the substrate cis/trans isomerization rate in all the samples. Therefore, neither the cells nor the FBS in the culture medium interferes with the protease-coupled PPIase assay (Fig. 4b).
The assay was performed in a cold room. If there was no additional description, the assays were performed in CO2-independent medium supplemented with 10% (v/v) h.i. FBS (medium-h.i. FBS) and 2mM L-glutamine. […] FBS to a final concentration of 120 µg mL^−1 (two times substrate stock). α-Chymotrypsin was prepared freshly. Fifteen micrograms of α-chymotrypsin was dissolved in 2 mL medium-h.i. FBS, and the pH was adjusted with 10 µL 1 M NaOH. Five millimole CsA, SLF, and CsA/SLF mixture were prepared in DMSO.
as §3, §4

Compound: CCC(C)(C)C(=O)C(=O)N1CCCC[C@H]1C(=O)O[C@H](CCc1ccc(OC)c(OC)c1)c1cccc(OCC(=O)O)c1 [SLF]
- Supernatant PPIase activity k, Exp. 1 (Jurkat cells; supernatant): 0.00208 s⁻¹
- Supernatant PPIase activity k, Exp. 2 (Jurkat cells; supernatant): 0.00205 s⁻¹
- Supernatant PPIase activity k, Exp. 3 (Jurkat cells; supernatant): 0.00194 s⁻¹
- Supernatant PPIase activity k, Exp. 4 (Jurkat cells; supernatant): 0.00211 s⁻¹
- Supernatant PPIase activity k, Exp. 5 (Jurkat cells; supernatant): 0.00203 s⁻¹
- Supernatant PPIase activity k, Exp. 6 (Jurkat cells; supernatant): 0.00196 s⁻¹
- Supernatant PPIase activity k, Mean (Jurkat cells; supernatant): 0.002028 s⁻¹
- cell surface PPIase activity k, Cell (1st replicate column) (Jurkat cells; with cells): 0.0033 s⁻¹
- cell surface PPIase activity k, Cell (2nd replicate column) (Jurkat cells; with cells): 0.00321 s⁻¹
- cell surface PPIase activity k, Cell (3rd replicate column) (Jurkat cells; with cells): 0.00336 s⁻¹
- cell surface PPIase activity k, Cell (4th replicate column) (Jurkat cells; with cells): 0.00308 s⁻¹
- cell surface PPIase activity k, Cell (5th replicate column) (Jurkat cells; with cells): 0.00293 s⁻¹
- cell surface PPIase activity k, Cell (6th replicate column) (Jurkat cells; with cells): 0.00306 s⁻¹
- cell surface PPIase activity k, Mean (Jurkat cells; with cells): 0.003176 s⁻¹
- Supernatant PPIase activity k, Exp. 1 ([1]; supernatant): 0.0025 s⁻¹
- Supernatant PPIase activity k, Exp. 2 ([1]; supernatant): 0.00238 s⁻¹
- Supernatant PPIase activity k, Exp. 3 ([1]; supernatant): 0.00221 s⁻¹
- Supernatant PPIase activity k, Exp. 4 ([1]; supernatant): 0.00211 s⁻¹
- Supernatant PPIase activity k, Mean ([1]; supernatant): 0.0023 s⁻¹
- cell surface PPIase activity k, Exp. 2 ([1]; with cells): 0.0036 s⁻¹
- cell surface PPIase activity k, Exp. 3 ([1]; with cells): 0.00293 s⁻¹
- cell surface PPIase activity k, Exp. 4 ([1]; with cells): 0.00339 s⁻¹
- cell surface PPIase activity k, Mean ([1]; with cells): 0.003307 s⁻¹
- Supernatant PPIase activity k, Exp. 1 ([2]; Medium with FBS): 0.00201 s⁻¹
- Supernatant PPIase activity k, Exp. 2 ([2]; Medium with FBS): 0.00203 s⁻¹
- Supernatant PPIase activity k, Exp. 3 ([2]; Medium with FBS): 0.00197 s⁻¹
- Supernatant PPIase activity k, Mean ([2]; Medium with FBS): 0.002003 s⁻¹
- Supernatant PPIase activity k, Exp. 1 ([2]; Medium without FBS): 0.00194 s⁻¹
- Supernatant PPIase activity k, Exp. 2 ([2]; Medium without FBS): 0.00197 s⁻¹
- Supernatant PPIase activity k, Exp. 3 ([2]; Medium without FBS): 0.00199 s⁻¹
- Supernatant PPIase activity k, Mean ([2]; Medium without FBS): 0.001967 s⁻¹
- inhibition of residual PPIase activity in the supernatant ([2]; supernatant / FBS-containing culture medium (Fig. 4b, first right)): completely inhibited
- Supernatant PPIase activity k, Exp. 1 ([3]; supernatant): 0.00186 s⁻¹
- Supernatant PPIase activity k, Exp. 2 ([3]; supernatant): 0.00236 s⁻¹
- Supernatant PPIase activity k, Exp. 3 ([3]; supernatant): 0.00238 s⁻¹
- Supernatant PPIase activity k, Mean ([3]; supernatant): 0.0022 s⁻¹
- cell surface PPIase activity k, Exp. 2 ([3]; with cells): 0.0027 s⁻¹
- cell surface PPIase activity k, Exp. 3 ([3]; with cells): 0.00286 s⁻¹
- cell surface PPIase activity k, Exp. 4 ([3]; with cells): 0.00333 s⁻¹
- cell surface PPIase activity k, Mean ([3]; with cells): 0.002963 s⁻¹
